“And” between values parts separate entries of the source, which are not always exact repeats. Equal values may be shown once.
System: 168753-222-R-J1-PDC complex spheroid viability
Experiment: Anticancer human tumor 168753-222-R-J1-PDC patient-derived bladder carcinoma cell line growth inhibition [CLK]
Details: for viability, T/C: stronger effect = lower value
How it was run: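 Multi-cell-type spheroids combined patient-derived tumor cells with HUVEC endothelial cells and human mesenchymal stem cells. Paired agents were dosed in half-log steps down from about clinical Cmax, or from 10 microM where Cmax was unknown.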

[1] = curve of first compound, second compound 0.0316 µM
[2] = curve of first compound, second compound 0.1 µM
[3] = curve of first compound, second compound 0.316 µM
[4] = curve of first compound, second compound 1 µM
[5] = curve of first compound, second compound 3.16 µM
[6] = curve of first compound, second compound 10 µM
[7] = second compound 0.0316 µM, first compound 0.0316 µM
[8] = second compound 0.0316 µM, first compound 0.1 µM
[9] = second compound 0.0316 µM, first compound 0.316 µM
[10] = second compound 0.0316 µM, first compound 1 µM
[11] = second compound 0.0316 µM, first compound 3.16 µM
[12] = second compound 0.0316 µM, first compound 10 µM
[13] = second compound 0.1 µM, first compound 0.0316 µM
[14] = second compound 0.1 µM, first compound 0.1 µM
[15] = second compound 0.1 µM, first compound 0.316 µM
[16] = second compound 0.1 µM, first compound 1 µM
[17] = second compound 0.1 µM, first compound 3.16 µM
[18] = second compound 0.1 µM, first compound 10 µM
[19] = second compound 0.316 µM, first compound 0.0316 µM
[20] = second compound 0.316 µM, first compound 0.1 µM
[21] = second compound 0.316 µM, first compound 0.316 µM
[22] = second compound 0.316 µM, first compound 1 µM
[23] = second compound 0.316 µM, first compound 3.16 µM
[24] = second compound 0.316 µM, first compound 10 µM
[25] = second compound 1 µM, first compound 0.0316 µM
[26] = second compound 1 µM, first compound 0.1 µM
[27] = second compound 1 µM, first compound 0.316 µM
[28] = second compound 1 µM, first compound 1 µM
[29] = second compound 1 µM, first compound 3.16 µM
[30] = second compound 1 µM, first compound 10 µM
[31] = second compound 3.16 µM, first compound 0.0316 µM
[32] = second compound 3.16 µM, first compound 0.1 µM
[33] = second compound 3.16 µM, first compound 0.316 µM
[34] = second compound 3.16 µM, first compound 1 µM
[35] = second compound 3.16 µM, first compound 3.16 µM
[36] = second compound 3.16 µM, first compound 10 µM
[37] = second compound 10 µM, first compound 0.0316 µM
[38] = second compound 10 µM, first compound 0.1 µM
[39] = second compound 10 µM, first compound 0.316 µM
[40] = second compound 10 µM, first compound 1 µM
[41] = second compound 10 µM, first compound 3.16 µM
[42] = second compound 10 µM, first compound 10 µM
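Note: viability measured after seven days of drug exposure.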
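Throughout, for viability, T/C: luminescence signal used as surrogate for viable cell amount; 100% = DMSO vehicle control wells.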

COc1ccc([C@@H](O)c2cc(-c3ncnc4cc(N5CCOCC5)ccc34)c(F)cc2Cl)nn1
viability, T/C (compound 0.0316 µM): 90% and 106% | viability, T/C (compound 0.1 µM): 95.4% and 97.4% | viability, T/C (compound 0.316 µM): 40.8% and 95.7% | viability, T/C (compound 1 µM): 26.3% and 80.3% | viability, T/C (compound 3.16 µM): 13.1% and 37.1% | viability, T/C (compound 10 µM): 7.58% and 16.6% | IC50 (curve of compound): 0.258 µM and 2.25 µM

O=C(c1cc(Cc2n[nH]c(=O)c3ccccc23)ccc1F)N1CCN(C(=O)C2CC2)CC1 + CNC(=O)c1ccc(Nc2nc(OC3CCCC3)c3c(-c4ccc5nc(C)oc5c4)c[nH]c3n2)c(OC)c1
IC50 [1]: > 10 µM | IC50 [2]: > 10 µM | IC50 [3]: > 10 µM | IC50 [4]: < 0.0316 µM | IC50 [5]: < 0.0316 µM | IC50 [6]: < 0.0316 µM | viability, T/C [7]: 105% | viability, T/C [8]: 113% | viability, T/C [9]: 103% | viability, T/C [10]: 118% | viability, T/C [11]: 114% | viability, T/C [12]: 95.5% | viability, T/C [13]: 92.3% | viability, T/C [14]: 86.1% | viability, T/C [15]: 92.8% | viability, T/C [16]: 95% | viability, T/C [17]: 99.2% | viability, T/C [18]: 93.7% | viability, T/C [19]: 76.8% | viability, T/C [20]: 74.2% | viability, T/C [21]: 68.2% | viability, T/C [22]: 63.6% | viability, T/C [23]: 84.8% | viability, T/C [24]: 70.4% | viability, T/C [25]: 39.7% | viability, T/C [26]: 41% | viability, T/C [27]: 37.3% | viability, T/C [28]: 39.7% | viability, T/C [29]: 44.4% | viability, T/C [30]: 38.4% | viability, T/C [31]: 24.1% | viability, T/C [32]: 26.2% | viability, T/C [33]: 22.7% | viability, T/C [34]: 17.8% | viability, T/C [35]: 22.3% | viability, T/C [36]: 25.5% | viability, T/C [37]: 17.8% | viability, T/C [38]: 18.5% | viability, T/C [39]: 18.7% | viability, T/C [40]: 18.1% | viability, T/C [41]: 18.1% | viability, T/C [42]: 21.3%

C=C(F)C(=O)N1CCN(c2nc(OCC3CCCN3C)nc3c2CCN(c2cccc4cccc(Cl)c24)C3)CC1CC#N (stereo not given) + CNC(=O)c1ccc(Nc2nc(OC3CCCC3)c3c(-c4ccc5nc(C)oc5c4)c[nH]c3n2)c(OC)c1
IC50 [1]: > 10 µM | IC50 [2]: 7.02 µM | IC50 [3]: 8.05 µM | IC50 [4]: 0.0412 µM | IC50 [5]: < 0.0316 µM | IC50 [6]: < 0.0316 µM | viability, T/C [7]: 104% | viability, T/C [8]: 120% | viability, T/C [9]: 102% | viability, T/C [10]: 102% | viability, T/C [11]: 110% | viability, T/C [12]: 52.8% | viability, T/C [13]: 94.1% | viability, T/C [14]: 103% | viability, T/C [15]: 83.9% | viability, T/C [16]: 96.2% | viability, T/C [17]: 96.5% | viability, T/C [18]: 30% | viability, T/C [19]: 79.5% | viability, T/C [20]: 75.8% | viability, T/C [21]: 81.9% | viability, T/C [22]: 74.3% | viability, T/C [23]: 90% | viability, T/C [24]: 43.1% | viability, T/C [25]: 50.1% | viability, T/C [26]: 50.6% | viability, T/C [27]: 45.5% | viability, T/C [28]: 28.8% | viability, T/C [29]: 46.8% | viability, T/C [30]: 31.7% | viability, T/C [31]: 23.4% | viability, T/C [32]: 26.8% | viability, T/C [33]: 26.3% | viability, T/C [34]: 17.8% | viability, T/C [35]: 18.4% | viability, T/C [36]: 18.1% | viability, T/C [37]: 22.6% | viability, T/C [38]: 21.2% | viability, T/C [39]: 24.7% | viability, T/C [40]: 19.3% | viability, T/C [41]: 17.5% | viability, T/C [42]: 14.6%

C=CC(=O)Nc1cc(Nc2nccc(-c3cn(C)c4ccccc34)n2)c(OC)cc1N(C)CCN(C)C
viability, T/C (compound 0.000949 µM): 111% and 100% | viability, T/C (compound 0.003 µM): 108% and 99.8% | viability, T/C (compound 0.00949 µM): 97.8% and 98.2% | viability, T/C (compound 0.03 µM): 98% and 106% | viability, T/C (compound 0.0949 µM): 103% and 106% | viability, T/C (compound 0.3 µM): 89.4% and 103% | IC50 (curve of compound): > 0.3 µM

CCCS(=O)(=O)Nc1ccc(F)c(C(=O)c2c[nH]c3ncc(-c4ccc(Cl)cc4)cc23)c1F + CNC(=O)c1ccc(Nc2nc(OC3CCCC3)c3c(-c4ccc5nc(C)oc5c4)c[nH]c3n2)c(OC)c1
IC50 [1]: > 10 µM | IC50 [2]: > 10 µM | IC50 [3]: 9.85 µM | IC50 [4]: 3.86 µM | IC50 [5]: < 0.0316 µM | IC50 [6]: < 0.0316 µM | viability, T/C [7]: 109% | viability, T/C [8]: 105% | viability, T/C [9]: 113% | viability, T/C [10]: 116% | viability, T/C [11]: 105% | viability, T/C [12]: 68.1% | viability, T/C [13]: 91.6% | viability, T/C [14]: 103% | viability, T/C [15]: 105% | viability, T/C [16]: 106% | viability, T/C [17]: 103% | viability, T/C [18]: 66.2% | viability, T/C [19]: 92.3% | viability, T/C [20]: 98.7% | viability, T/C [21]: 93.1% | viability, T/C [22]: 104% | viability, T/C [23]: 101% | viability, T/C [24]: 49.3% | viability, T/C [25]: 53.7% | viability, T/C [26]: 50.7% | viability, T/C [27]: 46.9% | viability, T/C [28]: 57.2% | viability, T/C [29]: 64% | viability, T/C [30]: 28.6% | viability, T/C [31]: 25.1% | viability, T/C [32]: 33.7% | viability, T/C [33]: 34.4% | viability, T/C [34]: 30.1% | viability, T/C [35]: 29.6% | viability, T/C [36]: 26.1% | viability, T/C [37]: 20% | viability, T/C [38]: 31.2% | viability, T/C [39]: 29.7% | viability, T/C [40]: 20.1% | viability, T/C [41]: 27.8% | viability, T/C [42]: 24%

Source: PubChem BioAssay AID2060626 (Molecular Pharmacology Branch, DTP, NCI, 2025)
